# Test results reported in patent US10752587B2, “Homobispiperidinyl derivatives as liver X receptor beta agonists, compositions and their use” (Merck Sharp & Dohme Corp., priority 2015, dated 2020).
# Like-named read-outs stand apart in the source and are kept apart here.
# Tests used:
# [1] = biological target: T1, glutathione-S-transferase (GST) tagged LXRbeta LBD (ligand binding domain) (Homo sapiens, UniProt P55055); assay: LanthaScreen TR-FRET Liver X Receptor Coactivator Assay, co-activator recruitment to LXRbeta LBD; type: biochemical
# T1 construct: purchased Invitrogen pv4658.pps
# T1 sequence (P55055 222-460 limits assumed): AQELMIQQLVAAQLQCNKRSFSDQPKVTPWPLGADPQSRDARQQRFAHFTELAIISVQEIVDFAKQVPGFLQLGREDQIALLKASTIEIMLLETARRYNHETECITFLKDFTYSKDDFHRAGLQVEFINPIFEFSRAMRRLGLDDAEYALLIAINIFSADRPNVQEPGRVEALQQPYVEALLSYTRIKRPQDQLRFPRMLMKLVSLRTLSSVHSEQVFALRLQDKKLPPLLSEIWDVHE
# Outline: (§1)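 Compound-induced coactivator recruitment by the GST-fused ligand binding domain, detected as TR-FRET between Tb-labelled anti-GST antibody and fluorescein-tagged coactivator peptide after room-temperature incubation. IP and Emax expressed versus T0901317 as reference agonist.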
# [2] = biological target: T2, glutathione-S-transferase (GST) tagged LXRalpha LBD (ligand binding domain) (Homo sapiens, UniProt Q13133); assay: LanthaScreen TR-FRET Liver X Receptor Coactivator Assay, co-activator recruitment to LXRalpha LBD; type: biochemical
# T2 construct: purchased Invitrogen pv4655
# T2 sequence (Q13133 209-447 limits assumed): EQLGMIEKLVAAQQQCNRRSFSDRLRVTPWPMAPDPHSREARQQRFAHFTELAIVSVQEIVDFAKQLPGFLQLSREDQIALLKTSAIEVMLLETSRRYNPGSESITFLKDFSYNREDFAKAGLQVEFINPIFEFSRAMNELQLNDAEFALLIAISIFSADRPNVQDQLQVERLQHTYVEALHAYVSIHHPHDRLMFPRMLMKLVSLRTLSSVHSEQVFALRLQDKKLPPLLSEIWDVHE
# Outline: as §1
# [3] = efficacy at max dose, in relation to reference dual agonist T0901317, read-out: LXR beta Activity @ max dose (%)
# [4] = potency (Inflection Point, IP), co-activator recruitment to LXRbeta LBD, in relation to T0901317, read-out: LXR beta IP
# [5] = efficacy at max dose, in relation to reference dual agonist T0901317, read-out: LXR alpha Activity @ max dose (%)
# [6] = potency (Inflection Point, IP), co-activator recruitment to LXRalpha LBD, in relation to T0901317, read-out: LXR alpha IP
# [7] = potency (Inflection Point, IP), co-activator recruitment to LXRalpha LBD, in relation to T0901317
# [8] = co-activator recruitment to GST-LXRbeta LBD, TR-FRET, read-out: LXR beta IP (Inflection Point, potency)
# [9] = efficacy in relation to reference dual agonist T0901317, read-out: LXR beta Activity @ max dose
# [10] = co-activator recruitment to GST-LXRalpha LBD, TR-FRET
# [11] = efficacy in relation to reference dual agonist T0901317, read-out: LXR alpha Activity @ max dose
# [12] = LXR beta IP (nM), potency (Inflection Point, IP), co-activator recruitment to LXRbeta LBD, in relation to T0901317
# [13] = read-out: LXR beta Activity @ max dose (%)
# [14] = read-out: LXR alpha Activity @ max dose (%)
# [15] = efficacy at max dose, in relation to reference dual agonist T0901317
Compound,"Emax [1, 3]","EC50 [1, 4]","Emax [2, 5]","EC50 [2, 6]","LXR alpha IP (nM) [2, 7]",other results
"COc1cccc(C(O)(C(=O)N2CCC(CC3CCN(c4ccc(C(=O)N(C)C)c(Cl)n4)CC3)CC2)C(F)(F)C(F)(F)F)c1 (stereo not drawn) [Example 7-58, 2-chloro-N,N-dimethyl-6-[4-({1-[3,3,4,4,4-pentafluoro-2-hydroxy-2-(3-methoxyphenyl)butanoyl]piperidin-4-yl}methyl)piperidin-1-yl]pyridine-3-carboxamide]",80%,11 nM,19%,274 nM,–,–
"COc1cccc([C@@](O)(C(=O)N2CCC(C)(CC3CCN(c4ccc(C(=O)N(C)C)c(C)c4)CC3)CC2)C(F)(F)F)c1 [Example 2-80, N,N,2-trimethyl-4-[4-({4-methyl-1-[(2R)-3,3,3-trifluoro-2-hydroxy-2-(3-methoxyphenyl)propanoyl]piperidin-4-yl}methyl)piperidin-1-yl]benzamide]",19%,19 nM,0%,–,NO IP,–
"Cc1cc(N2CCC(CC3CCN(C(=O)[C@](O)(c4cccc(OC(F)(F)F)c4)C(F)(F)F)CC3)CC2)ccc1C(=O)N(C)C [Example 2-150, N,N,2-trimethyl-4-{4-[(1-{(2R)-3,3,3-trifluoro-2-hydroxy-2-[3-(trifluoromethoxy)phenyl]propanoyl}piperidin-4-yl)methyl]piperidin-1-yl}benzamide]",56%,23 nM,15%,–,NO IP,–
"CN(C)C(=O)c1ccc(N2CCC(CC3CCN(S(=O)(=O)c4cccc(OC(F)F)c4)CC3)CC2)cc1Cl [Example 13-10, 2-chloro-4-{4[(1-{[3-(difluoromethoxy)-phenyl]sulfonyl}-piperidin-4-yl)methyl]-piperidin-1-yl}-N,N-dimethylbenzamide]",–,–,–,–,–,"EC50 [1, 8]: 104 nM; Emax [1, 9]: 52%; LXR alpha IP (Inflection Point, potency) [2, 10]: NO IP; Emax [2, 11]: 5%"
"CC(C)N(C)C(=O)c1ccc(N2CCC(CC3CCN(C(=O)[C@](O)(c4ccccc4)C(F)(F)F)CC3)CC2)cc1Cl [Example 4-2, 2-chloro-N-methyl-N-(1-methylethyl)-4-[4-({1-[(2R)-3,3,3-trifluoro-2-hydroxy-2-phenyl-propanoyl]piperidin-4-yl}methyl)piperidin-1-yl]benzamide]",73%,29 nM,30%,270 nM,–,–
"CC[C@](O)(C(=O)N1CCC(CC2CCN(c3ccc(C(=O)N(C)C)c(Cl)c3)CC2)CC1)c1ccccc1 [Example 2-110, 2-chloro-4-[4-({1-[(2R)-2-hydroxy-2-phenylbutanoyl]piperidin-4-yl}methyl)piperidin-1-yl]-N,N-dimethyl-benzamide]",50%,54 nM,17%,–,NO IP,–
"CN(C)C(=O)c1ccc(N2CCC(CC3CCN(C(=O)[C@](O)(c4ccccc4)C4CC4)CC3)CC2)cc1Cl [Example 2-105, 2-chloro-4-[4-({1-[(2R)-2-cyclopropyl-2-hydroxy-2-phenylacetyl]piperidin-4-yl}methyl)piperidin-1-yl]-N,N-dimethyl-benzamide]",–,–,–,–,NO IP,"EC50 [1, 12]: 21 nM; Emax [1, 13]: 48%; Emax [2, 14]: 12%"
"CCOc1cccc([C@@](O)(C(=O)N2CCC(CC3CN(c4ccc(C(=O)N(C)C)c(OC)n4)C3)CC2)C(F)(F)F)c1 [Example 7-22, 6-[3-({1-[(2R)-2-(3-ethoxyphenyl)-3,3,3-trifluoro-2-hydroxypropanoyl]piperidin-4-yl}methyl)azetidin-1-yl]-2-methoxy-N,N-dimethylpyridine-3-carboxamide]",45%,1270 nM,0%,–,NO IP,–
"COc1cccc(S(=O)(=O)N2CC(CC3CCN(c4ccc(C(=O)N(C)C)c(Cl)n4)CC3)C2)c1 [Example 14-2, 2-chloro-6-[4-({1-[(3-methoxyphenyl)-sulfonyl]azetidin-3-yl}methyl)piperidin-1-yl}-N,N-dimethyl-pyridine-3-carboxamide]",–,–,–,–,–,"EC50 [1, 8]: 50 nM; Emax [1, 9]: 93%; EC50 ([2]; co-activator recruitment to GST-LXRalpha LBD, TR-FRET, read-out: LXR alpha IP (Inflection Point, potency)): 10300 nM; Emax [2, 11]: 45%"
"CN(C)C(=O)c1ccc(N2CCC(CC3CCN(C(=O)[C@](O)(c4cc(F)cc(Cl)c4)C(F)(F)F)CC3)CC2)cc1Cl [Example 2-102, 2-chloro-4-[4-({1-[(2R)-2-(3-chloro-5-fluorophenyl)-3,3,3-trifluoro-2-hydroxy-propanoyl]piperidin-4-yl}methyl)piperidin-1-yl]-N,N-dimethyl-benzamide]",81%,2 nM,36%,29 nM,–,–
"COc1cccc([C@@](O)(C(=O)N2CCC(CC3CCN(c4ccc(C(=O)N(C)C)c(Cl)c4)CC3)CC2)C2CC2)c1 [Example 2-114, 2-chloro-4-[4-({1-[(2R)-2-cyclopropyl-2-hydroxy-2-(3-methoxy-phenyl)acetyl]piperidin-4-yl}methyl)piperidin-1-yl]-N,N-dimethyl-benzamide]",–,–,–,–,NO IP,"EC50 [1, 12]: 266 nM; Emax [1, 13]: 19%; Emax [2, 14]: 6%"
"CNC(=O)c1ccc(N2CCC(CC3CCN(C(=O)[C@](O)(c4cccc(C)c4)C(F)(F)F)CC3)CC2)nc1Cl [Example 7-151, 2-chloro-N-methyl-6-[4-({1-[(2R)-3,3,3-trifluoro-2-hydroxy-2-(3-methylphenyl)propanoyl]piperidin-4-yl}methyl)piperidin-1-yl]pyridine-3-carboxamide]",81%,7 nM,34%,121 nM,–,–
"CCN(C)C(=O)c1ccc(N2CCC(CC3CCN(C(=O)[C@](O)(c4ccccc4)C(F)(F)F)CC3)CC2)cc1Cl [Example 4-12, 2-chloro-N-ethyl-N-methyl-4-[4-({1-[(2R)-3,3,3-trifluoro-2-hydroxy-2-phenylpropanoyl]piperidin-4-yl}methyl)piperidin-1-yl]benzamide]",83%,14 nM,34%,166 nM,–,–
"COc1cccc([C@@](O)(C(=O)N2CCC(CC3CCN(c4ccc(C(=O)N(C)C)c(Cl)n4)CC3)CC2)C(F)(F)F)c1 [Example 7-74, 2-chloro-N,N-dimethyl-6-[4-({1-[(2R)-3,3,3-trifluoro-2-hydroxy-2-(3-methoxyphenyl)propanoyl]piperidin-4-yl}methyl)piperidin-1-yl] pyridine-3-carboxamide]",–,7 nM,–,–,NO IP,"LXR beta Activity @ max dose (%) [1, 15]: 61%; LXR alpha Activity @ max dose (%) [2, 15]: 9%"
"CN(C)C(=O)c1ccc(N2CCC(CCC3CCN(C(=O)[C@](O)(c4ccccc4)C(F)(F)F)CC3)CC2)cc1Cl [Example 2-162, 2-chloro-N,N-dimethyl-4-[4-(2-{1-[(2R)-3,3,3-trifluoro-2-hydroxy-2-phenyl-propanoyl]piperidin-4-yl}ethyl)piperidin-1-yl]benzamide]",38%,502 nM,12%,–,NO IP,–
"CN(C)C(=O)c1ccc(N2CCC(CC3CCN(C(=O)[C@](O)(c4cc(Cl)cc(Cl)c4)C(F)(F)F)CC3)CC2)cc1Cl [Example 2-93, 2-chloro-4-[4-({1-[(2R)-2-(3,5-dichloro-phenyl)-3,3,3-trifluoro-2-hydroxy-propanoyl]piperidin-4-yl}methyl)piperidin-1-yl]-N,N-dimethyl-benzamide]",59%,5 nM,7%,–,NO IP,–
"CN(C)C(=O)c1ccc(N2CCC(CC3CCN(S(=O)(=O)c4cccc(Br)c4)CC3)CC2)cc1Cl [Example 13-12, 4-[4-({1-[(3-bromo-phenyl)sulfonyl]-piperidin-4-yl}methyl)-piperidin-1-yl]-2-chloro-N,N-dimethyl-benzamide]",–,–,–,–,–,"EC50 [1, 8]: 83 nM; Emax [1, 9]: 54%; LXR alpha IP (Inflection Point, potency) [2, 10]: NO IP; Emax [2, 11]: 16%"
"CNC(=O)c1ccc(N2CCC(CC3CCN(C(=O)[C@](O)(c4cccc(OC)c4)C(F)(F)C(F)(F)F)CC3)CC2)cc1Cl [Example 7-124, 2-chloro-N-methyl-4-[4-({1-[(2R)-3,3,4,4,4-pentafluoro-2-hydroxy-2-(3-methoxyphenyl)butanoyl]piperidin-4-yl}methyl)piperidin-1-yl]benzamide]",96%,28 nM,36%,482 nM,–,–
